Results on three molecules are retold here after PMC3203342 (Nature, 2011).

Structures are written as SMILES.

Assay [1] addresses T1, Or59b/Orco in ab2A OSN (Drosophila melanogaster, UniProt Q9W1P8).
T1 sequence (Q9W1P8 1-398): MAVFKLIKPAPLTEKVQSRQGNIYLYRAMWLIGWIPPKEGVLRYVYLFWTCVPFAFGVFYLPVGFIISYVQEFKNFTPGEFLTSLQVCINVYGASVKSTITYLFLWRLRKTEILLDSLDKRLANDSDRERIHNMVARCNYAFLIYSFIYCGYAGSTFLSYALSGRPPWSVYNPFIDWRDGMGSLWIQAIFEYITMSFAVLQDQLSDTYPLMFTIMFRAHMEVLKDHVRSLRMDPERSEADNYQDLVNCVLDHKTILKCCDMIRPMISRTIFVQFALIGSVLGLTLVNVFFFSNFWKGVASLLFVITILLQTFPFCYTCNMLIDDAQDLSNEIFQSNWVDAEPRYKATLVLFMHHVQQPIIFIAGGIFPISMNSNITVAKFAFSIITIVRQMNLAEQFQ
T1 sequence (Q9VNB5 1-486 partner): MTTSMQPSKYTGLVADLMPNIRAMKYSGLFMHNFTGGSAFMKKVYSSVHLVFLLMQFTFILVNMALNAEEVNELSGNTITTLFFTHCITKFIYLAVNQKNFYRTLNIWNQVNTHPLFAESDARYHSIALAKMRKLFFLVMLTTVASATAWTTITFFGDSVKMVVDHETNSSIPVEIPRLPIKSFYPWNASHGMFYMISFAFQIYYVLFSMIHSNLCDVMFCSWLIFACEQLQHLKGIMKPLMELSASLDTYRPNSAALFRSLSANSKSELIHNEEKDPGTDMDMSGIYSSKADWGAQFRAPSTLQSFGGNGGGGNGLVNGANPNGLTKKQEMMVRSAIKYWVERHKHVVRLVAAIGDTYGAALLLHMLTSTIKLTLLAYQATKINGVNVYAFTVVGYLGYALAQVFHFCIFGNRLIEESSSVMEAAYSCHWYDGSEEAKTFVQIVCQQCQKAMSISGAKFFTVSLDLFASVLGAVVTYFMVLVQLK
Briefly: single sensillum recording, dose-response. It counts as cell-based. The note with it: native ab2A neuron; vapour; inhibitor of spontaneous activity.

The target of assay [2] is T2, Or85a/Orco in ab2B OSN (Drosophila melanogaster, UniProt Q9VHS4).
T2 sequence (Q9VHS4 1-397): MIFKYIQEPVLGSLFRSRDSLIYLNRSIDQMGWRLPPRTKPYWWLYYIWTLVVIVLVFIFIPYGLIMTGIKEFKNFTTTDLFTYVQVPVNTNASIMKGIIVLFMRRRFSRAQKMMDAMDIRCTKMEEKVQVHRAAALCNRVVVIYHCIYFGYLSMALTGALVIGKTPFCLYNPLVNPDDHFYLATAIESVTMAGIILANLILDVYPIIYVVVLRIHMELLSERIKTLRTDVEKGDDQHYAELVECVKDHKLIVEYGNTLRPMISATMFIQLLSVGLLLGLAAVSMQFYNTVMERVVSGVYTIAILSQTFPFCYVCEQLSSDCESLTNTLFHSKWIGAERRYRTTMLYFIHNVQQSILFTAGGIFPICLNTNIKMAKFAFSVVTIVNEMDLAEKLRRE
T2 sequence (Q9VNB5 1-486 partner): T1 sequence (Q9VNB5 1-486 partner)
Briefly: single sensillum recording, dose-response. The note with it: native ab2B neuron; vapour; agonist. The assay is classed as cell-based.

`CCCCCCCCO` [1-octanol]: the Δ spikes/s entry in assay [1] is “DEET interfered with inhibition of Or59b/Orco by 1-octen-3-ol, 1-octanol, and linalool”.

Turning to `C=CC(O)CCCCC` (stereo not drawn) [1-octen-3-ol], the Δ spikes/s entry in assay [2] is given as “activating the ab2B neuron expressing Or85a/Orco (Fig. 1e)”.

For the molecule `C=C[C@](C)(O)CCC=C(C)C` [linalool], the Δ spikes/s result in assay [1] was “DEET interfered with inhibition of Or59b/Orco by 1-octen-3-ol, 1-octanol, and linalool”.
